Assay [1] relates to DU145 prostate carcinoma human cell lines. The assay is described as follows: DU145 prostate carcinoma human cell lines grown i.d. in nude mice. Type of assay: in vivo. How it is done:
DU145 Prostate Carcinoma Human Cell Lines Grown i.d. in Nude Mice
DU145 prostate carcinoma human cell lines are grown i.d. in nude mice. Tumor cell (10^6) are injected intradermally (i.d.) on the left and right flank of nude mice. Treatment with compounds is started after 25-32 days when tumors reach a size of 80-100 mm^2. At this time animals are sorted into groups with equivalent mean and range of tumor sizes. Treatment is then randomized to the different groups. Tumor size is measured with calipers on a weekly basis.
After 4 weeks of treatment, 50 mg/kg po/day of PTK787 (active ingredient 1) reduces the tumor growth by 74%. 50 mg/kg po/day of the selective EGF receptor tyrosine kinase inhibitor as described in Example 1 of WO 96/33980 (active ingredient 2) reduces tumor growth by 91%. The maximum effects of either agent given alone in this model is stable disease. Simultaneous treatment with both active ingredients (50 mg/kg po/day of each active ingredient) results in tumor regression (25% reduction compared to intial tumor weight).
After 2 weeks of treatment, 50 mg/kg po/day of PTK787 (active ingredient 1) reduces the tumor growth by 41%. 50 mg/kg po/day of the selective EGF receptor tyrosine kinase inhibitor PKI166 reduces tumor growth by 44%. Simultaneous treatment with both active ingredients (50 mg/kg po/day of each active ingredient) reduces the tumor growth by 74%.

In assay [2] the test system is NeuT transfected HC11 mouse mammary epithelial cells (breast tumors). Nature of the assay: Mouse breast carcinoma induced by transfection of breast epithelial cells with NeuT (transgenic organ tumor model). The conditions noted are these: female BALB/c mice, 100 mg/kg of each active ingredient once per day; fraction of tumors. Type of assay: in vivo. How it is done: Treatment of Mouse Breast Carcinoma Induced by Transfection of Breast Epithelial Cells with NeuT (Transgenic Organ Tumor Model)
The dual treatment with PTK787 in the form of its succinate salt (active ingredient 1, Example 62 of WO 98/35958) and an EGF receptor tyrosine inhibitor of formula IV wherein q′ is 1, n′ is 0, R^E1 is hydrogen, R^E2 is 3-acetylamino phenyl and R^E6 is methyl (active ingredient 2, Example 22e of WO 97/02266) is performed on a genetically engineered tumor model, which uses “transgenic” organs in normal mice. NeuT (the point mutated rat homolog of erbB-2) transfected HC11 epithelial mouse mammary epithelial cells are transplanted into the gland-free mammary fat pad (cleared fat-pad) of the fourth mammary gland of female BALB/c mice according to an established method (DeOme, Faulkin, et al., Cancer Res. 19: 515-520, 1959). Within 4 to 6 weeks, the transplanted oncogene-transfected mammary epithelial cells develop breast tumors. Tumors are focal and heterogeneous in morphology, and oncogene and other molecular marker expression. Tumors grow rapidly and most of the animals develop breast tumors bilaterally after transplantation. The animals are allocated randomly to three different treatment groups. A first group is treated with 100 mg/kg of active ingredient 1 dosed once per day alone; a second group is treated with 100 mg/kg of active ingredient 2 dosed once per day alone; and a third group is treated with the combination of both active ingredients dosed with 100 mg/kg once per day. […]

[3] abbreviates: 50 mg/kg po/day, after 4 weeks of treatment.
[4] abbreviates: 50 mg/kg po/day of each active ingredient, after 2 weeks of treatment.

As to `COc1cc2ncnc(Nc3ccc(F)c(Cl)c3)c2cc1OCCCN1CCOCC1` [Example 1 of WO 96/33980, reference compound], the “reduction of tumor growth” value in assay [1] (setting [3]) is 91%.

Turning to `Clc1ccc(Nc2nnc(Cc3ccncc3)c3ccccc23)cc1` [PTK787], the “reduction of tumor growth” value in assay [1] (setting [4]) worked out at 41%. For the same molecule, the “reduction of tumor growth” value in assay [1] (setting [3]) came to 74%. In assay [2], the tumors with regression was 7%, the “tumors with stable disease” value is 21% and the “tumors without response to the treatment” value is 78%.

Consider `C[C@@H](Nc1ncnc2[nH]c(-c3ccc(O)cc3)cc12)c1ccccc1` [PKI166], for which the “reduction of tumor growth” value in assay [1] (setting [4]) is reported as 44%.

(Values after patent US20040034026A1, “Combination comprising an agent decreasing vegf activity and an agent decreasing egf activity” (priority 2000, published 2004).)
